# Source: patent US6953812B2, “Glucagon antagonists/inverse agonists” (Novo Nordisk, Inc., priority 2000, dated 2005)
# Legend:
# [1] = target: T1, human glucagon receptor (Homo sapiens, UniProt P47871); assay: Glucagon Binding Assay (II); conditions: membranes of BHK cells transfected with human glucagon receptor, 125I-glucagon, SPA; read-out: Glu Bd Assay (II) IC50
# T1 construct: expressed in transfected cells; host or cells: BHK (baby hamster kidney) cells, membrane preparation
# Procedure: Glucagon Binding Assay (II)
# BHK (baby hamster kidney cell line) cells are transfected with the human glucagon receptor and a membrane preparation of the cells is prepared.
# All steps in the membrane preparation are kept on ice or performed at 4° C. BHK cells are harvested and centrifuged. The pellet is resuspended in homogenisation buffer (25 mM HEPES, pH=7.4, 2.5 mM CaCl2, 1.0 mM MgCl2, 250 mg/L bacitracin, 0.1 mM Pefabloc), homogenised 2×10 sec using Polytron 10-35 homogenizer (Kinematica) and added the same amount of homogenisation buffer as used for resuspension. After centrifugation (15 min at 2000×g) the supernatant is transferred to cold centrifuge tubes and centrifuged for 45 min at 40.000×g. The pellet is resuspended in homogenisation buffer, homogenised 2×10 sec (Polytron) and additional homogenisation buffer is added. The suspension is centrifuged for 45 min at 40.000×g and the pellet is resuspended in resuspension buffer (25 mM HEPES, pH=7.4, 2.5 mM CaCl2, 1.0 mM MgCl2) and homogenised 2×10 sec. (Polytron). […] Stabilisation buffer (25 mM HEPES, pH=7.4, 2.5 mM CaCl2, 1.0 mM MgCl2, 1% bovine serum albumin, 500 mg/L bacitracin, 2.5 M sucrose) is added and the membrane preparation is stored at −80° C.
# (§1) The glucagon binding assay is carried out in opti plates (Polystyrene Microplates, Packard). 50 μL assay buffer (25 mM HEPES, pH=7.5, 2.5 mM CaCl2, 1.0 mM MgCl2, 0.003% Tween-20, 0.005% bacitracin, 0.05% sodium azide) and 5 μL glucagon or test compound (in DMSO) are added to each well. […] Finally 50 μL WGA beads containing 1 mg beads are transferred to the well. The opti plates are incubated for 4 hours on a shaker and then settled for 8-48 hours. The opti plates are counted in a Topcounter. Non-specific binding is determined with 500 nM of glucagon.
# [2] = target: T2, human GIP receptor (Homo sapiens, UniProt P48546); assay: GIP Binding Assay; conditions: membranes of BHK cells transfected with human GIP receptor, 125I-GIP, SPA; read-out: GIP Bd Assay IC50
# T2 construct: expressed in transfected cells; host or cells: BHK (baby hamster kidney) cells, membrane preparation
# T2 sequence (P48546 22-466): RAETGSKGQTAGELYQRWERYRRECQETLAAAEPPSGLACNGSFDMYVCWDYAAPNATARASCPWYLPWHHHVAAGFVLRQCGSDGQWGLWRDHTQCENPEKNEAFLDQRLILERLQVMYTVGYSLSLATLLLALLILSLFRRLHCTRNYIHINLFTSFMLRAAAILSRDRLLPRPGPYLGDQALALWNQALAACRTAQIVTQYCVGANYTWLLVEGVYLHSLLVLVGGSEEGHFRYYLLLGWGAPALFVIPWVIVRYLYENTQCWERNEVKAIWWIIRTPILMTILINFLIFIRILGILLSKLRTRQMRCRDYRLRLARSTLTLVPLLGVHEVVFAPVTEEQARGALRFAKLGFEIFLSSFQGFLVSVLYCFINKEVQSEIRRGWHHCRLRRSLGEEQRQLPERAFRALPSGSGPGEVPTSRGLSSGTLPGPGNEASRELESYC
# Procedure: BHK (baby hamster kidney cell line) cells are transfected with the human GIP receptor and a membrane preparation of the cells is prepared.
# All steps in the membrane preparation are kept on ice or performed at 4° C. BHK cells are harvested and centrifuged. The pellet is resuspended in homogenisation buffer (25 mM) HEPES, pH=7.4, 2.5 mM CaCl2, 1.0 mM MgCl2, 250 mg/L bacitracin, 0.1 mM Pefabloc), homogenised 2×10 sec using Polytron 10-35 homogenizer (Kinematica) and added the same amount of homogenisation buffer as used for resuspension. After centrifugation (15 min at 2000×g) the supernatant is transferred to cold centrifuge tubes and centrifuged for 45 min at 40.000×g. The pellet is resuspended in homogenisation buffer, homogenised 2×10 sec (Polytron) and additional homogenisation buffer is added. The suspension is centrifuged for 45 min at 40.000×g and the pellet is resuspended in resuspension buffer (25 mM HEPES, pH=7.4, 2.5 mM CaCl2, 1.0 mM MgCl2) and homogenised 2×10 sec. (Polytron). […] Stabilisation buffer (25 mM HEPES, pH=7.4, 2.5 mM CaCl2, 1.0 mM MgCl2, 1% bovine serum albumin, 500 mg/L bacitracin, 2.5 M sucrose) is added and the membrane preparation is stored at −80° C.
# as §1, with “The GIP” for “The glucagon”, “μL GIP” for “μL glucagon”, “for 3.5” for “for 4”, “a Top-counter.” for “a Topcounter.”, “of GIP.” for “of glucagon.”
# T1 sequence (P47871 26-477): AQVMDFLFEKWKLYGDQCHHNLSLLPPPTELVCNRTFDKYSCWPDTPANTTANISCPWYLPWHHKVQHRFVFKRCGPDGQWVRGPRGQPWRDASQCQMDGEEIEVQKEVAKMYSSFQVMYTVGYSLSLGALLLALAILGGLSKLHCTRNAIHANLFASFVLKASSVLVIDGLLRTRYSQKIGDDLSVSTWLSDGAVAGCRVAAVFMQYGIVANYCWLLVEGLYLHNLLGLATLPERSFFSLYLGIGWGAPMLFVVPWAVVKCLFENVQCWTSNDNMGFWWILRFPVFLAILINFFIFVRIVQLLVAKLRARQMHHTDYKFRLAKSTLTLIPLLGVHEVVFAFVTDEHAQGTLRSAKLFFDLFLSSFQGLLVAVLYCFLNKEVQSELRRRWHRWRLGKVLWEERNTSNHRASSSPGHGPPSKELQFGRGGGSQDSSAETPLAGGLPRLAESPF
IC50 [1],IC50 [2],SMILES
15 nM,916 nM,"O=C(NC[C@@H](O)C(=O)O)c1ccc(CN(C(=O)Nc2cc(Cl)cc(Cl)c2)c2ccc(C3=CCCCC3)cc2)cc1 [Example 19, (R)-3-{4-[1-(4-Cyclohex-1-enylphenyl)-3-(3,5-dichlorophenyl)ureidomethyl]benzoylamino}-2-hydroxypropionic acid]"
52 nM,693 nM,"O=C(NC[C@@H](O)C(=O)O)c1ccc(CN(C(=O)Nc2cccc(Cl)c2)c2ccc(C3=CCCCC3)cc2)cc1 [Example 20, (R)-3-{4-[3-(3-Chlorophenyl)-1-(4-cyclohex-1-enylphenyl)ureidomethyl]benzoylamino}-2-hydroxypropionic acid]"
293 nM,1260 nM,"O=C(NC[C@@H](O)C(=O)O)c1ccc(CN(C(=O)Nc2ccccc2)c2ccc(C3=CCCCC3)cc2)cc1 [Example 21, (R)-3-{4-[1-(4-Cyclohex-1-enylphenyl)-3-phenylureidomethyl]benzoylamino}-2-hydroxypropionic acid]"
354 nM,2270 nM,"O=C(NC[C@@H](O)C(=O)O)c1ccc(CN(C(=O)NCc2ccccc2)c2ccc(C3=CCCCC3)cc2)cc1 [Example 22, (R)-3-{4-[3-Benzyl-1-(4-cyclohex-1-enylphenyl)ureidomethyl]benzoylamino}-2-hydroxypropionic acid]"
4.4 nM,37 nM,"O=C(NC[C@@H](O)C(=O)O)c1ccc(CN(C(=O)Nc2ccc(SC(F)(F)F)cc2)c2ccc(C3CCCCC3)cc2)cc1 [Example 24, (R)-3-{4-[1-(4-Cyclohexylphenyl)-3-(4-trifluoromethylsulfanylphenyl)ureidomethyl]benzoylamino}-2-hydroxypropionic acid]"
10 nM,465 nM,"CS(=O)(=O)c1cc(NC(=O)N(Cc2ccc(C(=O)NC[C@@H](O)C(=O)O)cc2)c2ccc(C3=CCCCC3)cc2)ccc1OC(F)(F)F [Example 25, (R)-3-{4-[1-(4-Cyclohexen-1-ylphenyl)-3-(3-methanesulfonyl-4-trifluoromethoxyphenyl)ureidomethyl]benzoylamino}-2-hydroxypropionic acid]"
92 nM,703 nM,"Cc1cc(C)cc(NC(=O)N(Cc2ccc(C(=O)NC[C@@H](O)C(=O)O)cc2)[C@H]2CC[C@H](C(C)(C)C)CC2)c1 [Example 26, Trans-(R)-3-{4-[-3-(3,5-bis(methyl)phenyl)-1-(4-tert-butylcyclohexyl)ureidomethyl]benzoylamino}-2-hydroxypropionic Acid]"
9.7 nM,258 nM,"O=C(NC[C@@H](O)C(=O)O)c1ccc(CN(C(=O)Nc2cc(Cl)cc(Cl)c2)c2ccc(C3CCCCC3)cc2)cc1 [Example 27, (R)-3-{4-[1-(4-Cyclohexylphenyl)-3-(3,5-dichlorophenyl)ureidomethyl]benzoylamino}-2-hydroxypropionic Acid]"
24 nM,623 nM,"CSc1cccc(NC(=O)N(Cc2ccc(C(=O)NC[C@@H](O)C(=O)O)cc2)c2ccc(C3CCCCC3)cc2)c1 [Example 29, (R)-3-{4-[1-(4-Cyclohexylphenyl)-3-(3-methylsulfanylphenyl)ureidomethyl]benzoylamino}-2-hydroxypropionic Acid]"
13 nM,217 nM,"O=C(NC[C@@H](O)C(=O)O)c1ccc(CN(C(=O)Nc2ccc3c(c2)C(F)(F)OC(F)(F)O3)c2ccc(C3=CCCCC3)cc2)cc1 [Example 30, (R)-3-{4-[1-(4-Cyclohex-1-enylphenyl)-3-(2,2,4,4-tetrafluoro-4H-benzo[1,3]dioxin-6-yl)ureido-methyl]benzoylamino}-2-hydroxypropionic Acid]"
917 nM,≥ 3000 nM,"CO[C@H](CNC(=O)c1ccc(CN(C(=O)Nc2cc(Cl)cc(Cl)c2)c2ccc(C3=CCCCC3)cc2)cc1)C(=O)O [Example 31, 3-{4-[1-(4-Cyclohex-1-enylphenyl)-3-(3,5-dichlorophenyl)ureidomethyl]benzoylamino}-2(R)-methoxypropionic Acid]"
40 nM,432 nM,"C[C@H](NC(=O)N(Cc1ccc(C(=O)NC[C@@H](O)C(=O)O)cc1)c1ccc(C2CCCCC2)cc1)c1ccc(Cl)cc1 [Example 35, 3-{4-[3-[1(S)-(4-Chlorophenyl)ethyl]-1-(4-cyclohexylphenyl)ureidomethyl]benzoylamino}-2(R)-hydroxypropionic Acid]"
14 nM,284 nM,"O=C(NC[C@@H](O)C(=O)O)c1ccc(CN(C(=O)NCc2ccccc2-c2ccccc2)c2ccc(C3CCCCC3)cc2)cc1 [Example 36, 3-{4-[3-Biphenyl-2-ylmethyl-1-(4-cyclohexylphenyl)ureidomethyl]benzoylamino}-2(R)-hydroxypropionic acid]"
33 nM,221 nM,"CC(C)(C)c1cccc(NC(=O)N(Cc2ccc(C(=O)NC[C@@H](O)C(=O)O)cc2)c2ccc(C3CCCCC3)cc2)c1 [Example 38, (R)-3-{4-[3-(3-tert-Butylphenyl)-1-(4-cyclohexylphenyl)ureidomethyl]benzoylamino)-2-hydroxypropionic Acid]"
18 nM,357 nM,"O=C(NC[C@@H](O)C(=O)O)c1ccc(CN(C(=O)Nc2ccc(OC(F)(F)F)c(CO)c2)c2ccc(C3CCCCC3)cc2)cc1 [Example 39, (R)-3-{4-[1-(4-Cyclohexylphenyl)-3-(3-hydroxymethyl-4-trifluoromethoxyphenyl)ureidomethyl]-benzoylamino}-2-hydroxypropionic Acid]"
107 nM,800 nM,"CC(C)(C)c1ccc(N(Cc2ccc(C(=O)NC[C@@H](O)C(=O)O)cc2)C(=O)Nc2ccc(Cl)c(Cl)c2)cc1 [Example 40, (R)-3-{4-[1-(4-tert-butylphenyl)-3-(3,4-dichlorophenyl)ureidomethyl]benzoylamino}-2-hydroxypropionic acid]"
133 nM,1590 nM,"CC(C)(C)C1CCC(N(Cc2ccc(C(=O)NC[C@@H](O)C(=O)O)cc2)C(=O)Nc2ccc(Cl)c(Cl)c2)CC1 (stereo partly drawn) [Example 41, (R)-3-{4-[1-(4-tert-Butylcyclohexyl)-3-(3,4-dichlorophenyl)ureidomethyl]benzoylamino}-2-hydroxypropionic acid]"

SMILES,IC50 [1],IC50 [2]
"N#Cc1ccc(NC(=O)N(Cc2ccc(C(=O)NC[C@@H](O)C(=O)O)cc2)c2ccc(C3CCCCC3)cc2)cc1C(F)(F)F [Example 37, (R)-3-{4-[3-(4-Cyano-3-trifluoromethylphenyl)-1-(4-cyclohexylphenyl)ureidomethyl]benzoyl-amino}-2-hydroxypropionic Acid]",19 nM,520 nM
